Reference: US20050019746A1, “Apoptosis-related kinase/GPCRs” (EiRx Therapeutics Limited, priority 2003, published 2005)

Legend:
Type in all cases: cell-based, human
[1] = system: target gene mRNA in PC3 cells; test: Validation of siRNA efficacy by QPCR in PC3 cells; details: PC3, siRNA 50 nM, RNAiFect, 24 hours post transfection, relative to non-silencing control, normalised to GAPDH
Method: To evaluate the ability of each siRNA oligonucleotides to knock down its intended target, each siRNA was validated in a cell line known to express the target, in this example the genes were tested PC3 cells, which were shown by expression profiling to express all target genes. The efficacy of knockdown was measured using QPCR. Cells are plated at a density of 2×10^4 cells in each well of a 24 well plate and incubated at 37° C. overnight. The siRNA is transfected into cells using RNAiFect reagent (Qiagen) with siRNA at a concentration of 50 nM according to manufacturer's instructions. Additional wells of cells are transfected with 50 nM of a non-silencing control (Qiagen). […] Transfected cells are harvested at 24 hours post transfection, and RNA extracted using RNeasy Miniprep columns with an on-column DNase digestion step. The RNA is eluted in 30 μl of RNase-free H2O. cDNA is synthesised from 12 μl of this RNA using an anchored oligo(dT) primer (Sigma) and Transcriptor reverse transcriptase (Roche) at 55° C. in a total volume of 20 μl following the manufacturer's instructions. The resulting cDNA is diluted to a total of 200 μl with H2O and 10 μl used in each QPCR reaction. The levels of transcript are compared by QPCR, relative to the non-silencing control. QPCR is performed using primers, conditions and methodology identical to those used for expression profiling, see Table 8. All reactions were performed in duplicate and the average Ct values calculated. For each sample, the Ct of each target gene in normalised to GAPDH. Relative expression between cells transfected with target or non-silencing siRNA, normalised to GAPDH expression, is determined by the comparative Ct method.

[2] = system: target gene mRNA in DU145 cells; test: Knockdown by RNAi, QPCR, DU145 cells; details: DU145, 24 hrs post transfection, relative to missense control
Method: (§1) These siRNA oligos are initially tested for efficacy in a cell line in which the gene is expressed for example in the Hela, U251, TF1 or DU145 cell lines. Cells are plated at a density of between 7.5-10×10^4 in each well of a 6 well plate and incubated at 37° C. overnight in DMEM culture medium (1× Dulbeccos modified Eagles medium (Sigma D2554), 0.004% folic acid, 4 mM L-glutamine, 0.37% sodium bicarbonate, 0.1 mM sodium pyruvate) containing 10% fetal calf serum (FCS). 2 μg of duplex siRNA is transfected into cells using DMRIE-C reagent (Invitrogen 10459-014) according to methods described in U.S. Patent Application No. 60/498,488. In brief, to prepare 1 ml of a transfection solution 2 μg of siRNA duplex in added to 1 ml of Optimem (Gibco), to which 8 μl of DMRIE C reagent is added. Transfection mix is added directly to the cells and incubated for 4 hrs at 37° C. Post this 4 hr incubation, transfection solution is removed and cells are refed with fresh culture medium and incubated for a further 24 hrs. An additional medium change is required at this point to minimise toxicity of the transfection procedure. Cells are harvested at 24 or 48 hrs post transfection for analysis of mRNA expression. […]
(§2) After DMRIE transfections with siRNA Oligos against the apoptosis associated genes identified herein, or controls, cells are harvested at 24 or 48 hours post transfection as stated previously. […] RNA is quantified by spectrophotometric analysis and 1 μg is reverse transcribed into cDNA using SuperScriptII RNAseH-Reverse Transcriptase (Invitrogen 18064-014). […] QPCR primers are designed to amplify a PCR product of approximately 100 to 300 nucleotides in length from the CDS, following the guidelines outlined in the Quantitect SYBR Green PCR handbook from Qiagen.
(§3) Two template standards are used for quantitative PCR assessment of mRNA levels: • 1. A control RPS13 i.e. Ribosomal Protein Sub unit 13 (NM_001017) amplified PCR product diluted to [1000,100,10,1 and 0.1 fg] respectively, used to quantify the level of transcript; • 2. […]

[3] = system: target gene mRNA in U251 cells; test: Knockdown by RNAi, QPCR, U251 cells; details: U251, 24 hrs post transfection, relative to missense control
Method: as §1, §2, §3

Substance | Decrease in expression of target gene [1] | % Knockdown by RNAi, DU145 [2] | % Knockdown by RNAi, U251 [3]
siRNA EKI: siRNA duplex, sense GCACUGGAUCCAAAGCAUGtt, antisense CAUGCUUUGGAUCCAGUGCtt; same in Tables 9 and 11 (sense GCACUGGAUCCAAAGCAUGTT; antisense CAUGCUUUGGAUCCAGUGCTT; chemistry not given here) | 76.0% | – | –
siRNA FLT4: sense GUACGGCAACCUCUCCAACtt, antisense GUUGGAGAGGUUGCCGUACtt (sense GUACGGCAACCUCUCCAACTT; antisense GUUGGAGAGGUUGCCGUACTT; chemistry not given here) | – | 85% | –
siRNA GRAF: siRNA duplex, sense GCGGAAGUUUGCAGAUUCCtt, antisense GGAAUCUGCAAACUUCCGCtt; same in Tables 9 and 11 (sense GCGGAAGUUUGCAGAUUCCTT; antisense GGAAUCUGCAAACUUCCGCTT; chemistry not given here) | 64.5% | 84.4% | –
siRNA MAK: sense GAAGCCAAGCAUGGGUGUUtt, antisense AACACCCAUGCUUGGCUUCtt (sense GAAGCCAAGCAUGGGUGUUTT; antisense AACACCCAUGCUUGGCUUCTT; chemistry not given here) | – | 19% | –
siRNA NTKL: siRNA duplex, sense UGUGGAGCUGAUGAAGCACtt, antisense GUGCUUCAUCAGCUCCACAtt; same in Tables 9 and 11 (sense UGUGGAGCUGAUGAAGCACTT; antisense GUGCUUCAUCAGCUCCACATT; chemistry not given here) | 82.9% | – | 37%
siRNA P14KB: sense GCUACGGAAGCUGAUCCUCtt, antisense GAGGAUCAGCUUCCGUAGCtt (sense GCUACGGAAGCUGAUCCUCTT; antisense GAGGAUCAGCUUCCGUAGCTT; chemistry not given here) | – | – | 36%
siRNA ROCK: siRNA duplex, sense UACAUGCCUGGUGGAGAUCtt, antisense GAUCUCCACCAGGCAUGUAtt; same in Tables 9 and 11 (sense UACAUGCCUGGUGGAGAUCTT; antisense GAUCUCCACCAGGCAUGUATT; chemistry not given here) | 65.0% | – | –
siRNA Survivin: positive control siRNA, sense GAACUGGCCCUUCUUGGAGtt, antisense CUCCAAGAAGGGCCAGUUCtt (sense GAACUGGCCCUUCUUGGAGTT; antisense CUCCAAGAAGGGCCAGUUCTT; chemistry not given here) [reference compound] | 82.2% | – | 47%
